Like-named read-outs stand apart in the source and are kept apart here.

This is an account of results in patent publication US10800789B2, “Antiviral compounds” (Gilead Pharmasset LLC, priority 2012, dated 2020).

The subject of assay [1] is stable HCV 2a JFH-1 Rluc replicon cells (L31 present in NS5A). Briefly: Renilla luciferase HCV replicon reporter assay, genotype 2a JFH-1. Format: cell-based. As to conditions: Hepatitis C virus. An outline of the steps: (§1)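 First, 3-fold serial dilutions of compound went onto replicon cells, DMSO serving as no-inhibition control and ITMN-191 at >100×EC50 as positive control. Next came 72 h incubation, lysis and Renilla luciferase measurement. Finally, EC50 was calculated by non-linear regression; replicons covered genotypes 1a H77, 1b Con1, 2a JFH-1 (L31) and J6-NS5A chimera (M31).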

The subject of assay [2] is stable HCV 1a RLuc replicon cells (dicistronic genotype 1a H77 replicon). Put plainly: Renilla luciferase HCV replicon reporter assay, genotype 1a. As to conditions: Hepatitis C virus, 72 h, stable 1a H77 RLuc replicon cells. The assay is classed as cell-based. An outline of the steps:
as §1
(Replicon systems follow genome replication, usually without infectious particles.)

The subject of assay [3] is stable HCV 1b RLuc replicon cells (dicistronic genotype 1b Con1 replicon). Put plainly: Renilla luciferase HCV replicon reporter assay, genotype 1b. The assay is classed as cell-based. As to conditions: Hepatitis C virus, 72 h, stable 1b Con1 RLuc replicon cells, 72 hours; read-out: 1b. The method in brief: as §1
Assay [4] has as its system NS5A chimeric genotype 1b Con1 replicon with genotype 3a S52 strain NS5A gene. Briefly: Replicon assay, genotype 3a NS5A chimera. The assay is classed as cell-based, HCV. The note with it: Hepatitis C virus.
Assay [5] deals with NS5A chimeric genotype 2a JFH-1 replicon with genotype 2b MD2b-1 strain NS5A gene (M31 present). Briefly: Replicon assay, genotype 2b NS5A chimera. The assay is classed as cell-based, HCV. The note with it: Hepatitis C virus. The method in brief: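 EC50 was fitted by non-linear regression to Renilla luciferase signal after 72 h of exposure to 3-fold serially diluted compound (10 mM DMSO stocks). Controls were DMSO (none) and ITMN-191 above 100×EC50 (full). Chimeric 2a replicons were used either stable or transiently transfected into Huh-Lunet cells.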

For assay [6], the system named is Q30R in genotype 1a NS5A (1a Pi-Rluc replicon, Huh-7-derived cured-51 cells). Briefly: Replicon assay against resistance mutant 1a Q30R. Format: cell-based, HCV. As to conditions: Hepatitis C virus. As for the experimental part:
Antiviral potency (EC50) was determined using a Renilla luciferase (RLuc)-based HCV replicon reporter assay. To perform the assay for genotype 1 and 2a JFH-1, stable HCV 1a RLuc replicon cells (harboring a dicistronic genotype 1a H77 replicon that encodes a RLuc reporter), stable HCV 1b RLuc replicon cells (harboring a dicistronic genotype 1b Con1 replicon that encodes a RLuc reporter), or stable HCV 2a JFH-1 Rluc replicon cells (harboring a dicistronic genotype 2a JFH-1 replicon that encodes a RLuc reporter; with L31 present in NS5A) were dispensed into 384-well plates for EC50 assays. To perform the assay for genotype 2a (with M31 present in NS5A) or 2b, NS5A chimeric genotype 2a JFH-1 replicons that encodes a RLuc-Neo reporter and either genotype 2a J6 strain NS5A gene or genotype 2b MD2b-1 strain NS5A gene (both with M31 present) respectively, were either transiently transfected (t) into Huh-Lunet cells or were established as stably replicating replicon cells (s) is provided. Either cells were dispensed into 384-well plates for EC50 assays. To perform the assay for genotype 3 and 4, NS5A chimeric genotype 1b Con1 replicons that encodes a Pi-RLuc reporter and either genotype 3a S52 strain NS5A gene or genotype 4a ED43 strain NS5A gene respectively, were transiently transfected (t) into Huh-Lunet cells, which were subsequently dispensed into 384-well plates. Compounds were dissolved in DMSO at a concentration of 10 mM and diluted in DMSO either manually or using an automated pipeting instrument. Serially 3-fold diluted compounds were either manually mixed with cell culture media and added to the seeded cells or directly added to the cells using an automated instrument. DMSO was used as a negative (solvent; no inhibition) control, and the protease inhibitor ITMN-191 was included at a concentration>100×EC50 as a positive control. 72 hours later, cells were lysed and Renilla luciferase activity quantified as recommended by the manufacturer (Promega-Madison, Wis.). Non-linear regression was performed to calculate EC50 values.
To determine the antiviral potency (EC50) against resistance mutants, resistance mutations, including M28T, Q30R, Q30H, Q30E, L31M, Y93C, Y93H, and Y93N in genotype 1a NS5A, Y93H and L31V/Y93H in genotype 1b NS5A, and Y93H for in genotype 3a NS5A, were introduced individually into either 1a Pi-Rluc or 1b Pi-Rluc replicons by site directed mutagenesis. Replicon RNA of each resistant mutant was transiently transfected into Huh-7-derived cured-51 cells and antiviral potency was determined on these transfected cells as described above.

Assay [7] deals with NS5A chimeric genotype 2a JFH-1 replicon with genotype 2a J6 strain NS5A gene (M31 present). Briefly: Replicon assay, genotype 2a J6 NS5A chimera. Format: cell-based, HCV. As to conditions: Hepatitis C virus. The method in brief: as §1
Assay [8] relates to NS5A chimeric genotype 1b Con1 replicon with genotype 4a ED43 strain NS5A gene. Briefly: Replicon assay, genotype 4a NS5A chimera. The assay is classed as cell-based, HCV. The note with it: Hepatitis C virus.
Where [9] appears, read: read-out: 2a JFH (nM), genotype 2a JFH-1 replicon (L31 in NS5A), stable cells.
The mark [10] stands for this setting: read-out: 2a JFH, stable 2a JFH-1 Rluc replicon cells, L31 in NS5A, activity range.
[11] abbreviates: read-out: 3a (s) (nM), genotype 3a NS5A chimeric replicon, stable replicon cells (s).
Where [12] appears, read: read-out: 3a (s), (s), activity range.
[13] abbreviates: 2BS, read-out: 2b (s), stably replicating replicon cells (s), activity range.
Setting [14] is: read-out: 2b (s) (nM), genotype 2b MD2b-1 NS5A chimeric replicon (M31), stably replicating replicon cells (s).
The mark [15] stands for this setting: read-out: 2b (t) (nM), genotype 2b MD2b-1 NS5A chimeric replicon (M31), transiently transfected (t).
Setting [16] is: read-out: 2b (t), transiently transfected (t) into Huh-Lunet cells, activity range.
[17] abbreviates: read-out: 4a (s) (nM), genotype 4a NS5A chimeric replicon, stable replicon cells (s).
The mark [18] stands for this setting: read-out: 4a (s), (s), activity range.

`CC[C@H]1CC[C@@H](c2nc3ccc4cc5c(cc4c3[nH]2)OCc2cc(-c3cnc([C@@H]4CC[C@H](C)N4C(=O)[C@@H](NC(=O)OC)C(C)C)[nH]3)ccc2-5)N1C(=O)[C@@H](NC(=O)OC)C1CCOCC1` [EO, methyl[(1 S)-2-[(2S,5S)-2-ethyl-5-(9-{2-[(2S,5S)-1-{(2S)-2 [(methoxycarbonyl)amino]-3-methylbutanoyl}-5-methylpyrrolidin-2-yl]-1H-imidazol-5-yl}-1,11-dihydroisochromeno[4′,3′:6,7]naphtho[1,2-d]imidazol-2-yl)pyrrolidin-1-yl]-2-oxo-1-(tetrahydro-2H-pyran-4-yl)ethyl]carbamate]: the EC50 in assay [1] (setting [9]) is 0.017 nM; in assay [1] (setting [10]), under 0.1 nM; in assay [2] it was 24 pM; in assay [2] (activity range), under 100 pM; in assay [3], 40 pM; in assay [4] (setting [11]), 0.054 nM. Further, the EC50 is under 0.1 nM in assay [4] (setting [12]); under 0.1 nM in assay [5] (setting [13]); 0.091 nM in assay [5] (setting [14]); 0.038 nM in assay [5] (setting [15]); under 0.1 nM in assay [5] (setting [16]); under 0.1 nM in assay [6] (read-out: 1a Q30R). In addition, in assay [6] (read-out: 1a Q30R (nM)), the EC50 is 0.052 nM.

`COC[C@H]1C[C@@H](c2ncc(-c3ccc4c(c3)COc3cc5c(ccc6nc([C@@H]7C[C@H](COC)CN7C(=O)[C@H](NC(=O)OC)c7ccccc7)[nH]c65)cc3-4)[nH]2)N(C(=O)[C@H](NC(=O)OC)c2ccccc2)C1` [EY, Methyl {(1R)-2-[(2S,4S)-2-(5-{2-[(2S,4S)-1-{(2R)-2-[(methoxycarbonyl)amino]-2-phenylacetyl}-4-(methoxymethyl)pyrrolidin-2-yl]-1,11-dihydroisochromeno[4′,3′:6,7]naphtho[1,2-d]imidazol-9-yl}-1H-imidazol-2-yl)-4-(methoxymethyl)pyrrolidin-1-yl]-2-oxo-1-phenylethyl}carbamate]: the EC50 was 0.029 nM in assay [1] (setting [9]); under 0.1 nM in assay [1] (setting [10]); 29 pM in assay [2]; under 100 pM in assay [2] (activity range); 49 pM in assay [3]; 0.087 nM in assay [4] (setting [11]). For the same compound, the EC50 in assay [4] (setting [12]) was under 0.1 nM; in assay [4] (read-out: 3a (t) (nM), genotype 3a NS5A chimeric replicon, transiently transfected (t)), 0.118 nM; in assay [4] (read-out: 3a (t), transiently transfected (t) into Huh-Lunet cells, activity range) it was 0.1 to 0.999 nM; in assay [5] (setting [13]), under 0.1 nM; in assay [5] (setting [14]), 0.035 nM; in assay [6] (read-out: 1a Q30R) it was under 0.1 nM. For the same compound, the EC50 in assay [6] (read-out: 1a Q30R (nM)) is 0.057 nM; in assay [7] (read-out: 2a J6 (t) (nM), genotype 2a J6 NS5A chimeric replicon (M31), transiently transfected (t) into Huh-Lunet cells), 0.008 nM; in assay [7] (read-out: 2a J6 (t), transiently transfected (t) into Huh-Lunet cells, activity range) it was under 0.1 nM; in assay [8] (setting [17]), 0.025 nM; in assay [8] (setting [18]), under 0.1 nM.

Take `COC(=O)N[C@H](C(=O)N1[C@@H](C)CC[C@H]1c1ncc(-c2ccc3c(c2)COc2cc4c(ccc5nc([C@@H]6CC[C@H](C)N6C(=O)[C@@H](NC(=O)OC)[C@@H](C)O)[nH]c54)cc2-3)[nH]1)C(C)C` [FI, Methyl {(2S,3R)-3-hydroxy-1-[(2S,5S)-2-(9-{2-[(2S,5S)-1-{(2S)-2-[(methoxycarbonyl)amino]-3-methylbutanoyl}-5-methylpyrrolidin-2-yl]-1H-imidazol-5-yl}-1,11-dihydroisochromeno[4′,3′:6,7]naphtho[1,2-d]imidazol-2-yl)-5-methylpyrrolidin-1-yl]-1-oxobutan-2-yl}carbamate]: the EC50 is 0.015 nM in assay [1] (setting [9]); under 0.1 nM in assay [1] (setting [10]); 10 pM in assay [2]; under 100 pM in assay [2] (activity range); 22 pM in assay [3]; 0.04 nM in assay [4] (setting [11]). Also, the EC50 in assay [4] (setting [12]) was under 0.1 nM; in assay [5] (setting [13]), 0.1 to 0.999 nM; in assay [5] (setting [14]), 0.152 nM; in assay [6] (read-out: 1a Q30R), 0.1 to 0.999 nM; in assay [6] (read-out: 1a Q30R (nM)), 0.115 nM; in assay [8] (setting [17]), 0.012 nM. The EC50 in assay [8] (setting [18]) is under 0.1 nM.

Turning to `COC(=O)N[C@H](C(=O)N1[C@@H](C)CC[C@H]1c1ncc(-c2ccc3c(c2)COc2cc4c(ccc5nc([C@@H]6CC[C@H](C)N6C(=O)[C@@H](NC(=O)OC)[C@@H](C)OC)[nH]c54)cc2-3)[nH]1)C1CCOCC1` [FR, Methyl [(1 S)-2-[(2S,5S)-2-(5-{2-[(2S,5S)-1-{(2S,3R)-3-methoxy-2-[(methoxycarbonyl)amino]butanoyl}-5-methylpyrrolidin-2-yl]-1,11-dihydroisochromeno[4′,3′:6,7]naphtho[1,2-d]imidazol-9-yl}-1H-imidazol-2-yl)-5-methylpyrrolidin-1-yl]-2-oxo-1-(tetrahydro-2H-pyran-4-yl)ethyl]carbamate], the EC50 in assay [1] (setting [9]) was 0.015 nM; in assay [1] (setting [10]) it was under 0.1 nM; in assay [2], 26 pM; in assay [2] (activity range) it was under 100 pM; in assay [3], 50 pM; in assay [4] (setting [11]), 0.031 nM. For the same compound, the EC50 in assay [4] (setting [12]) is under 0.1 nM; in assay [5] (setting [13]) it was under 0.1 nM; in assay [5] (setting [14]) it was 0.054 nM; in assay [6] (read-out: 1a Q30R), under 0.1 nM; in assay [6] (read-out: 1a Q30R (nM)), 0.071 nM.

With `CC[C@H](C)[C@H](NC(=O)OC)C(=O)N1[C@@H](C)CC[C@H]1c1ncc(-c2ccc3c(c2)COc2cc4c(ccc5nc([C@@H]6CC[C@H](C)N6C(=O)[C@@H](NC(=O)OC)C6CCOCC6)[nH]c54)cc2-3)[nH]1` [GG, Methyl [(2S,3S)-1-{(2S,5S)-2-[5-(2-{(2S,5S)-1-[(2S)-2-[(methoxycarbonyl)amino]-2-(tetrahydro-2H-pyran-4-yl)acetyl]-5-methylpyrrolidin-2-yl}-1,11-dihydroisochromeno[4′,3′:6,7]naphtho[1,2-d]imidazol-9-yl)-1H-imidazol-2-yl]-5-methylpyrrolidin-1-yl}-3-methyl-1-oxopentan-2-yl]carbamate], the EC50 was 0.02 nM in assay [1] (setting [9]); under 0.1 nM in assay [1] (setting [10]); 15 pM in assay [2]; under 100 pM in assay [2] (activity range); 22 pM in assay [3]; 0.038 nM in assay [4] (setting [11]). Also, the EC50 in assay [4] (setting [12]) was under 0.1 nM; in assay [5] (setting [13]) it was under 0.1 nM; in assay [5] (setting [14]), 0.083 nM; in assay [5] (setting [15]), 0.044 nM; in assay [5] (setting [16]), under 0.1 nM; in assay [6] (read-out: 1a Q30R), under 0.1 nM. Also, the EC50 in assay [6] (read-out: 1a Q30R (nM)) is 0.032 nM; in assay [8] (setting [17]), 0.013 nM; in assay [8] (setting [18]), under 0.1 nM.
